From patent US20240390298A1, “CYCLOHEXYL BETA-HYDROXY ALKYL AMINES AND MEDICAL USES THEREOF” (ATROGI AB, priority 2021, published 2024)
Where a name gives a salt, the structure may show the parent alone.

Key:
L6-myotubes [1] = assay: Glucose uptake in differentiated L6-myotubes (3H-2-deoxyglucose), compared to isoproterenol; format: cell-based; conditions: agonist 1×10^−5 M, 50 nM 3H-2-deoxyglucose; for Emax at 10 µM: read-out: Biological example 1: glucose uptake, activity compared to that of isoproterenol
Summary of the method: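 Serum-starved differentiated L6 myotubes stimulated with agonist at 1×10^−5 M for 1 h 40 min, re-dosed in glucose-free medium for 20 min, then given 50 nM ^3H-2-deoxyglucose for 10 min. Uptake read by β-counting of NaOH lysates; activity expressed relative to isoproterenol.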

L6-myotubes [2] = assay: Measurement of intracellular cAMP levels in differentiated L6 cells (alpha screen cAMP kit), compared to isoproterenol; format: cell-based; conditions: agonist 1×10^−5 M, 15 min; for Emax at 10 µM: Rattus norvegicus, L6, 0.25 h, read-out: Biological example 2: intracellular cAMP levels, activity compared to that of isoproterenol
Summary of the method: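 L6 myoblasts were differentiated into myotubes over 7 days in 2% FBS, then serum-starved overnight. Agonist at 1×10^−5 M final was applied for 15 min in HBSS with 1% BSA, 5 mM HEPES and 1 mM IBMX, pH 7.4. After ethanol extraction and lysis, cAMP was quantified by AlphaScreen, with activity expressed relative to isoproterenol.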

Row | SMILES | Emax at 10 µM (L6-myotubes [1]) [%] | Emax at 10 µM (L6-myotubes [2]) [%] | Biological example 1: glucose uptake, activity compared to that of isoproterenol (L6-myotubes [1]) | Biological example 2: intracellular cAMP levels, activity compared to that of isoproterenol (L6-myotubes [2])
1 | CC(C)(CC[C@H]1CC[C@H](O)CC1)NC[C@H](O)c1cncc(F)c1 [Example 63, (1S,4r)-4-(3-(((R)-2-(5-Fluoropyridin-3-yl)-2-hydroxyethyl)amino)-3-methylbutyl)cyclohexan-1-ol] | 25 to 50 | < 25 | – | –
2 | CN([C@H]1CC[C@H](CC(C)(C)NC[C@H](O)c2cccc(F)c2)CC1)S(C)(=O)=O.Cl [Example 179, N-((1R,4r)-4-(2-(((R)-2-(3-Fluorophenyl)-2-hydroxyethyl)amino)-2-methylpropyl)cyclohexyl)-N-methylmethanesulfonamide hydrochloride] | – | < 25 | + + | –
3 | CC(C)(C[C@H]1CC[C@@H](NS(=O)(=O)C(F)(F)F)CC1)NC[C@H](O)c1cncc(F)c1 [Example 199, 1,1,1-Trifluoro-N-((1S,4s)-4-(2-(((R)-2-(5-fluoropyridin-3-yl)-2-hydroxy-ethyl)amino)-2-methylpropyl)cyclohexyl)methanesulfonamide dihydrochloride] | – | < 25 | + + + | –
4 | CC(C)(C[C@H]1CC[C@@H](C(=O)O)CC1)NC[C@H](O)c1cccc(F)c1 [Example 105, (1S,4s)-4-(2-(((R)-2-(3-Fluorophenyl)-2-hydroxyethyl)amino)-2-methylpropyl)cyclohexane-1-carboxylic acid] | 25 to 50 | < 25 | – | –
5 | CCOC(=O)CO[C@H]1CC[C@H](C(C)(C)NC[C@H](O)c2cccc(F)c2)CC1 [Example 123, Ethyl 2-(((1R,4r)-4-(2-(((R)-2-(3-fluorophenyl)-2-hydroxyethyl)amino)-propan-2-yl)cyclohexyl)oxy)acetate] | – | < 25 | + + + | –
6 | CCOC(=O)CO[C@H]1CC[C@@H](C(C)(C)NC[C@H](O)c2cccc(F)c2)CC1 [Example 124, Ethyl 2-(((1S,4s)-4-(2-(((R)-2-(3-fluorophenyl)-2-hydroxyethyl)amino-)propan-2-yl)cyclohexyl)oxy)acetate] | – | < 25 | + + | –
7 | CC(C)(NC[C@H](O)c1cncc(F)c1)[C@H]1CC[C@@H](C(=O)O)CC1 [Example 97, (1S,4s)-4-(2-(((R)-2-(5-Fluoropyridin-3-yl)-2-hydroxyethyl)amino)propan-2-yl)cyclohexane-1-carboxylic acid] | 25 to 50 | 25 to 50 | – | –
8 | O[C@@H](CNC[C@H]1CC[C@H](O)CC1)c1cccc(F)c1 [Example 30, (1R,4r)-4-((((R)-2-(3-Fluorophenyl)-2-hydroxyethyl)amino)methyl)-cyclohexan-1-ol] | 25 to 50 | < 25 | – | –
9 | CO[C@H]1CC[C@@H](CCC(C)(C)NC[C@H](O)c2cccc(F)c2)CC1.Cl [Example 23, (R)-1-(3-Fluorophenyl)-2-((4-((1s,4R)-4-methoxycyclohexyl)-2-methylbutan-2-yl)amino)ethan-1-ol hydrochloride] | – | 25 to 50 | + + + | –
10 | CC(=O)N[C@H]1CC[C@@H](CNC[C@H](O)c2cncc(F)c2)CC1 [Example 74, N-((1S,4s)-4-((((R)-2-(5-Fluoropyridin-3-yl)-2-hydroxyethyl)amino)-methyl)cyclohexyl)acetamide] | 25 to 50 | < 25 | – | –
11 | CC(C)(C[C@H]1CC[C@@H](NS(C)(=O)=O)CC1)NC[C@H](O)c1cccc(C#N)n1 [Example 142, N-((1R,4s)-4-(2-(((S)-2-(6-Cyanopyridin-2-yl)-2-hydroxyethyl)amino)-2-methylpropyl)cyclohexyl)methanesulfonamide] | – | < 25 | + + + | –
12 | O[C@@H](CNCCC[C@H]1CC[C@@H](O)CC1)c1cncc(F)c1 [Example 60, (1R,4s)-4-(3-(((R)-2-(5-Fluoropyridin-3-yl)-2-hydroxyethyl)amino)propyl)-cyclohexan-1-ol] | – | < 25 | + + | –
13 | COC(=O)[C@H]1CC[C@@H](CC(C)(C)NC[C@H](O)c2cncc(F)c2)CC1 [Example 104, Methyl (1S,4s)-4-(2-(((R)-2-(5-fluoropyridin-3-yl)-2-hydroxyethyl)amino)-2-methylpropyl)cyclohexane-1-carboxylate] | – | < 25 | + + + | –
14 | CC(C)(C[C@H]1CC[C@@H](N)CC1)NC[C@H](O)c1cccc(C#N)n1 [Example 134, 6-((S)-2-((1-((1s,4R)-4-Aminocyclohexyl)-2-methylpropan-2-yl)amino)-1-hydroxyethyl)picolinonitrile trihydrochloride] | – | < 25 | + + | –
15 | O[C@@H](CNCCC[C@H]1CC[C@H](O)CC1)c1cccc(F)c1 [Example 57, (1S,4r)-4-(3-(((R)-2-(3-Fluorophenyl)-2-hydroxyethyl)amino)propyl)-cyclohexan-1-ol] | – | < 25 | + + | –
16 | CC(C)(CC[C@H]1CC[C@H](NS(C)(=O)=O)CC1)NC[C@H](O)c1cncc(F)c1 [Example 94, N-((1S,4r)-4-(3-(((R)-2-(5-Fluoropyridin-3-yl)-2-hydroxyethyl)amino)-3-methylbutyl)cyclohexyl)methanesulfonamide] | – | < 25 | + + | –
17 | O[C@@H](CNCCC[C@H]1CC[C@@H](OCc2ccccc2)CC1)c1cncc(F)c1 [Example 56, (R)-2-((3-((1s,4R)-4-(Benzyloxy)cyclohexyl)propyl)amino)-1-(5-fluoro-pyridin-3-yl)ethan-1-ol] | – | < 25 | + + | –
18 | O[C@@H](CNCCC[C@H]1CC[C@@H](O)CC1)c1cccc(F)c1 [Example 59, (1R,4s)-4-(3-(((R)-2-(3-Fluorophenyl)-2-hydroxyethyl)amino)propyl)-cyclohexan-1-ol] | 25 to 50 | < 25 | – | –
19 | CO[C@H]1CCC[C@@H](C(C)(C)NC[C@H](O)c2cccc(F)c2)C1 (single isomer, unassigned) [Example 120] | – | < 25 | + + + | –
20 | CO[C@H]1CCC[C@@H](C(C)(C)NC[C@H](O)c2cncc(F)c2)C1 (single isomer, unassigned) [Example 122] | – | – | + + + | + +
21 | CC(C)(C[C@H]1CC[C@H](NS(=O)(=O)C2CC2)CC1)NC[C@H](O)c1cccc(F)c1 [Example 161, N-((1R,4r)-4-(2-(((R)-2-(3-Fluorophenyl)-2-hydroxyethyl)amino)-2-methypropyl)cyclohexyl)cyclopropanesulfonamide hydrochloride] | – | < 25 | + + | –
22 | CO[C@H]1CC[C@H](C(C)(C)NC[C@H](O)c2cncc(F)c2)CC1 [Example 8, (R)-1-(5-Fluoropyridin-3-yl)-2-((2-((1r,4R)-4-methoxycyclohexyl)propan-2-yl)amino)ethan-1-ol] | – | < 25 | + + + | –
23 | CC(C)(CCC1CCC(O)CC1)NC[C@H](O)c1ccccc1F (stereo partly drawn) [Example 62, (1S,4r)-4-(3-(((R)-2-(2-Fluorophenyl)-2-hydroxyethyl)amino)-3-methyl-butyl)cyclohexan-1-ol] | – | < 25 | + + + | –
24 | CO[C@H]1CC[C@@H](CCNC[C@H](O)c2cncc(F)c2)CC1 [Example 10, (R)-1-(5-Fluoropyridin-3-yl)-2-((2-((1s,4S)-4-methoxycyclohexyl)ethyl)-amino)ethan-1-ol] | – | < 25 | + + + | –
25 | CC(C)(NC[C@H](O)c1cccc(F)c1)[C@H]1CC[C@H](OCC(=O)O)CC1 [Example 126, 2-(((1R,4r)-4-(2-(((R)-2-(3-Fluorophenyl)-2-hydroxyethyl)amino)propan-2-yl)cyclohexyl)oxy)acetic acid] | – | < 25 | + + | –
26 | CC(C)(CC[C@H]1CC[C@@H](O)CC1)NC[C@H](O)c1cncc(F)c1 [Example 66, (1R,4s)-4-(3-(((R)-2-(5-Fluoropyridin-3-yl)-2-hydroxyethyl)amino)-3-methylbutyl)cyclohexan-1-ol dihydrochloride] | – | < 25 | + + | –
27 | CC(C)(C[C@H]1CC[C@H](NS(=O)(=O)C(F)(F)F)CC1)NC[C@H](O)c1cccc(F)c1 [Example 160, 1,1,1-Trifluoro-N-((1R,4r)-4-(2-(((R)-2-(3-fluorophenyl)-2-hydroxyethyl)-amino)-2-methylpropyl)cyclohexyl)methanesulfonamide hydrochloride] | – | < 25 | + + + | –
28 | CC(=O)N(C)[C@H]1CC[C@H](CC(C)(C)NC[C@H](O)c2cccc(F)c2)CC1.Cl [Example 178, N-((1R,4r)-4-(2-(((R)-2-(3-Fluorophenyl)-2-hydroxyethyl)amino)-2-methylpropyl)cyclohexyl)-N-methylacetamide hydrochloride] | – | < 25 | + + + | –
